US11478440B2, “Combination of Elafibranor or derivatives thereof with an anti-NASH, anti-fibrotic or anti-cholestatic agent” (GENFIT, priority 2017, dated 2022)

Columns and labels:
[1] = test system: LPS-activated macrophages (THP-1); assay: TNFα secretion (HTRF) in LPS-activated THP-1 macrophages; type: cell-based, human; details: Elafibranor 1 μM alone; LPS 100 ng/ml 6 h
Experimental: THP-1 monocytes (ECACC #88081201) were seeded at a density of 25550 cells per well in 384-well plate in RPMI1640 (Gibco, 21875) supplemented with 10% SVF and differentiated into macrophages using PMA (Phorbol 12-myristate 13-acetate, Sigma, P8139) at the final concentration of 100 ng/ml for 24 hours.
For these experiments, a checkerboard matrix was generated. ELA and component stocks were serially diluted in DMSO in 6-points series in a column (ELA) and a 10-points series in a raw (component) of a 96-well plate for other compounds. Subsequently, the 6×10 combination matrix was generated by 1:1 mixing of all single agent concentrations.
After 24 hrs with PMA, medium was removed, and replaced by serum free RPMI. […]
Human TNFα is quantified in the supernatants using the Homogeneous Time Resolved Fluorescence (HTRF) technology (Cisbio 62[…]), based on FRET technology. FRET (Fluorescence Resonance Energy Transfer) is based on the transfer of energy between two fluorophores, a donor and an acceptor, when in close proximity. Molecular interactions between biomolecules can be assessed by coupling each partner with a fluorescent label and by detecting the level of energy transfer (665 nm). […]

[2] = test system: fibrosing NASH-model of rats fed a CDAA+1% cholesterol diet; assay: Chronic CDAA+1% cholesterol rat model: liver histology (picrosirius fibrosis surface, NASH lesions); type: in vivo, Wistar rats
Experimental: (§1) The preventive effects of Elafibranor alone, OCA alone and the combination of both were assessed in a fibrosing NASH-model of rats fed a CDAA+1% cholesterol diet. 150-175 g male Wistar rats were fed a control (CSAA) diet, CDAA+1% cholesterol diet, or CDAA+1% cholesterol diet supplemented with Elafibranor 1, 3 and 10 mg/kg/day, OCA 10 and 30 mg/kg/day or combined drugs (Elafibranor 1, 3 and 10 mg/kg/day combined to OCA 10 mg/kg/day) for 12 weeks.
(§2) The body weight and the food intake were monitored twice per week. On the last day of treatment, rats were sacrificed after a 6 h fasting period. The liver was rapidly excised for biochemical and histological studies.
The liver slices were first fixed for 12 hours in formalin 4% solution. Then, the liver pieces were washed 30 minutes in PBS, and dehydrated in ethanol solutions (successive baths at 70, 80, 95 and 100% ethanol). The liver pieces were incubated in three different baths of Xylene (Sigma-Aldrich cat #534056), followed by two baths in liquid paraffin (56° C.). Liver pieces were then put into racks that were gently filled with HISTOWAX to completely cover the tissue.
The paraffin blocks containing the tissue pieces were removed from the racks and stored at room temperature. The liver blocks were cut into 3 μm slices.
Liver sections were deparaffinized, rehydrated and incubated for 3 minutes in Mayer's Hematoxylin (Microm, cat #F/C0303). Then, the liver sections were rinsed in water and incubated 1 minute in Eosin G (VWR, cat #1.09844.1000). Sections were rinsed in water then dehydrated, and mounted using the CV Mount medium (Leica, cat #14046430011).
Liver sections were deparaffinized, rehydrated and incubated for 15 minutes in a solution of Fast Green FCF 0.1% (Sigma-Aldrich, cat #F7258) before rinsing in a bath of 0.5% acetic acid (Panreac, cat #131008.1611). Then, the liver sections were rinsed in water and incubated 30 minutes in a solution of 0.1% sirius red (Direct Red 80, Fluka cat #43665) in saturated aqueous picric acid (Sigma-Aldrich cat #P6744). Sections were then dehydrated, and mounted using the CV Mount medium (Leica, cat #14046430011).
A technician blinded to the source of each liver specimen performed histological examinations. Virtual slides were generated using the Pannoramic 250 scanner from 3D Histech. For each animal, a score summarizing the main histological lesions of NASH was attributed according to the NASH Clinical Research Network (Kleiner 2005, Brunt 1999). Briefly, steatosis, lobular inflammation and hepatocytes ballooning were scored. The NAFLD Activity Score (NAS score) was established for each individual as the unweighted sum of the steatosis (0-3), lobular inflammation (0-3) and the ballooning (0-2) injury grading.
Using Quant Center software (3D Histech, including Pattern Quant and Histo Quant modules), collagen-stained areas were quantified. Briefly, Pattern Quant was used to detect the tissue and measure its surface. Then, Histo Quant was used to detect the stained collagen content and measure its surface, based on a color threshold method. The fibrosis area was then expressed as the percentage of the collagen surface to the whole tissue per animal.

[3] = test system: fibrosing NASH-model of rats fed a CDAA+1% cholesterol diet; assay: Chronic CDAA+1% cholesterol rat model: hepatic collagen content (hydroxyproline); type: in vivo, Wistar rats; details: GFT505 3 mg/kg/d, OCA 10 mg/kg/d, alone or combined; 12 weeks in diet
Experimental: as §1, §2
The hepatic collagen content was determined using the appropriate QuickZyme kit (Total collagen assay, cat #QZB-totcol2). The assay is based on the detection of hydroxyproline, which is a non-proteinogenic amino acid mainly found in the triple helix of collagen. Thus, hydroxyproline in tissue hydrolysates can be used as a direct measure of the amount of collagen present in the tissue (without discrimination between procollagen, mature collagen and collagen degradation products).
Complete hydrolysis of tissue samples in 6M HCl at 95° C. is required before dosing the hydroxyproline. The assay results in the generation of a chromogen with a maximum absorbance at 570 nm. Results are expressed as mg of collagen/g of liver.

1-[4-methylthiophenyl]-3-[3,5-dimethyl-4-carboxydimethylmethyloxyphenyl]prop-2-en-1-one [Elafibranor]
inhibition of TNFα secretion [1]: 21% | fibrosis development ([2]; CDAA/chol diet rats, 12 weeks): very significant attenuation of fibrosis development | hepatocyte damage as judged by ballooning ([2]; CDAA/chol diet rats, 12 weeks): prevented or attenuated by elafibranor, in a dose-dependent manner | lobular inflammation ([2]; CDAA/chol diet rats, 12 weeks): attenuated by elafibranor in a dose-dependent manner | Fibrosis surface, percentage over the untreated CDAA + 1% cholesterol rats ([2]; GFT505 3 mg/kg/d, OCA 10 mg/kg/d, alone or combined, 12 weeks in diet): 34% ± 17% | Hepatic collagen content, percentage over the untreated CDAA + 1% cholesterol rats [3]: 45% ± 12%
